# Source: US7541358B2, “1-aryl-or 1-alkylsulfonylbenzazole derivatives as 5-hydroxytryptamine-6 ligands” (Wyeth, priority 2001, dated 2009)
# pKi: −log10 of the molar value.
# Tests used:
# [1] = biological target: T1, human cloned 5-HT6 receptors (Homo sapiens, UniProt P50406); assay: 5-HT6 binding affinity ([3H]-LSD displacement, membranes of Hela cells expressing human cloned 5-HT6 receptors); conditions: [3H]-LSD 3.0 nM, Hela cell membranes; for inhibition at 1 µM / % inhibition at 1 μM concentration: 1 μM test compound; for inhibition at 1 µM: read-out: % inhibition at 1 μM concentration; for pKi: 120 min at room temperature
# T1 construct: expressed in transfected cells; host or cells: Hela cells
# Protocol: The affinity of test compounds for the serotonin 5-HT6 receptor is evaluated in the following manner. Cultured Hela cells expressing human cloned 5-HT6 receptors are harvested and centrifuged at low speed (1,000×g) for 10.0 min to remove the culture media. The harvested cells are suspended in half volume of fresh physiological phosphate buffered saline solution and recentrifuged at the same speed. This operation is repeated. The collected cells are then homogenized in ten volumes of 50 mM Tris.HCl (pH 7.4) and 0.5 mM EDTA. The homogenate is centrifuged at 40,000×g for 30.0 min and the precipitate is collected. The obtained pellet is resuspended in 10 volumes of Tris.HCl buffer and recentrifuged at the same speed. The final pellet is suspended in a small volume of Tris.HCl buffer and the tissue protein content is determined in aliquots of 10-25 μl volumes. Bovine Serum Albumin is used as the standard in the protein determination according to the method described in Lowry et al., J. Biol. Chem., 193:265 (1951). The volume of the suspended cell membranes is adjusted to give a tissue protein concentration of 1.0 mg/ml of suspension. The prepared membrane suspension (10 times concentrated) is aliquoted in 1.0 ml volumes and stored at −70° C. until used in subsequent binding experiments.
# Binding experiments are performed in a 96 well microtiter plate format, in a total volume of 200 μl. […] The test compounds are added in 20.0 μl volume.
# The reaction is allowed to proceed in the dark for 120 min at room temperature, at which time, the bound ligand-receptor complex is filtered off on a 96 well unifilter with a Packard Filtermate® 196Harvester. The bound complex caught on the filter disk is allowed to air dry and the radioactivity is measured in a Packard TopCount® equipped with six photomultiplier detectors, after the addition of 40.0 μl Microscint®-20 scintillant to each shallow well. The unifilter plate is heat-sealed and counted in a PackardTopCount® with a tritium efficiency of 31.0%.
# Binding in the presence of varying concentrations of test compound is expressed as a percentage of specific binding in the absence of test compound. The results are plotted a log % bound versus log concentration of test compound. […] A linear regression line of data points is plotted, from which the IC50 value is determined and the Ki value is determined based upon the following equation: Ki=IC50/(1+L/KD) where L is the concentration of the radioactive ligand used and KD is the dissociation constant of the ligand for the receptor, both expressed in nM.
# T1 sequence (P50406 whole entry): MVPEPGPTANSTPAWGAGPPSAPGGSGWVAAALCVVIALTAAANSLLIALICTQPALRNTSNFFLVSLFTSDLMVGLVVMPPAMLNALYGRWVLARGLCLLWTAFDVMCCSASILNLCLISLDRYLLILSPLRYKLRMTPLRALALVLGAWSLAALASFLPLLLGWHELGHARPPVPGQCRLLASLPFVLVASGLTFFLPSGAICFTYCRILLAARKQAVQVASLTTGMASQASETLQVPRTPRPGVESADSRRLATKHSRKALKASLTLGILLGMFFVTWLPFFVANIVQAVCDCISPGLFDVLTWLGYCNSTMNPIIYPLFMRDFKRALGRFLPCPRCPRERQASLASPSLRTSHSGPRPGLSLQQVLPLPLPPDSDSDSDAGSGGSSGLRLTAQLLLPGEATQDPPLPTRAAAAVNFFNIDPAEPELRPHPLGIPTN
inhibition at 1 µM [1] [%],melting point [°C],pKi [1],Compound,% inhibition at 1 μM concentration [1] [% @ 1 μM*]
,60,7.66,"O=S(=O)(c1c(Cl)nc2sccn12)n1ccc2cc(OCCN3CCCCC3)ccc21 [Example 13, 1-[(6-chloroimidazo[2,1-b][1,3]thiazol-5-yl)sulfonyl]-5-[2-(piperidin-1-yl)ethoxy]-1H-indole]",
,88 to 90,8.70,"O=S(=O)(c1c(Cl)nc2sccn12)n1ncc2c(OCCN3CCCCC3)cccc21 [Example 22, 1-[(6-chloroimidazo[2,1-b][1,3]thiazol-5-yl)sulfonyl]-4-[2-(piperidin-1-yl)ethoxy]-1H-indazole]",
,214 to 216,7.74,"O=S(=O)(c1cc(Cl)c(Cl)s1)n1ncc2c(OCCN3CCCCC3)cccc21 [Example 23, 1-[(4,5-dichlorothien-2-yl)sulfonyl]-4-[2-(piperidin-1-yl)ethoxy]-1H-indazole]",
,187 to 189,7.92,"O=S(=O)(c1ccc(Cl)s1)n1ncc2c(OCCN3CCCCC3)cccc21 [Example 24, 1-[(5-chlorothien-2-yl)sulfonyl]-4-[2-(piperidin-1-yl)ethoxy]-1H-indazole]",
,172 to 175,8.10,"O=S(=O)(c1cccs1)n1ncc2c(OCCN3CCCCC3)cccc21 [Example 25, 4-[2-(piperidin-1-yl)ethoxy]-1-(thien-2-ylsulfonyl)-1H-indazole]",
,216 to 218,7.28,"Cc1c(S(=O)(=O)n2ncc3c(OCCN4CCCCC4)cccc32)sc2ccc(Cl)cc12 [Example 26, 1-[(5-chloro-3-methyl-1-benzothien-2-yl)sulfonyl]-4-[2-(piperidin-1-yl)ethoxy]-1H-indazole]",

# Second part, the compound before the results:
Compound,inhibition at 1 µM [1] [%],melting point [°C],pKi [1],% inhibition at 1 μM concentration [1] [% @ 1 μM*]
"O=S(=O)(c1ccc(Cl)s1)n1ccc2cc(OCCN3CCCCC3)ccc21 [Example 11, 1-[(5-chlorothien-2-yl)sulfonyl]-5-[2-(piperidin-1-yl)ethoxy]-1H-indole]",51,222 to 224,,
"O=S(=O)(c1cc(Cl)c(Cl)s1)n1ccc2cc(OCCN3CCCCC3)ccc21 [Example 12, 1-[(4,5-dichlorothien-2-yl)sulfonyl]-5-[2-(piperidin-1-yl)ethoxy]-1H-indole]",65,222 to 224,,
"Cc1c(S(=O)(=O)n2ccc3cc(OCCN4CCCCC4)ccc32)sc2ccc(Cl)cc12 [Example 14, 1-[(5-chloro-3-methyl-1-benzothien-2-yl)sulfonyl]-5-[2-(piperidin-1-yl)ethoxy]-1H-indole]",65,,,
"Cc1c(S(=O)(=O)n2ccc3c(OCCN4CCCCC4)cccc32)sc2ccc(Cl)cc12 [Example 15, 1-[(5-chloro-3-methyl-1-benzothien-2-yl)sulfonyl]-4-[2-(piperidin-1-yl)ethoxy]-1H-indole]",,217 to 219,7.15,
"O=[N+]([O-])c1ccc(S(=O)(=O)n2ncc3c(OCCN4CCCCC4)cccc32)cc1 [Example 20, 1-[(4-nitrophenyl)sulfonyl]-4-[2-(l-piperidinyl)ethoxy]1H-indazole]",,,,76
"N,N-Bis(3-methoxybenzyl)-N-(2-{[1-(phenylsulfonyl)-1H-indol-4-yl]oxy}ethylamine [Example 7a]",,,,94
N-(3-methoxybenzyl)-N-(2-{[1-(phenylsulfonyl)-1H-indol-4-yl]oxy}ethylamine hydrochloride [Example 7b],,,,95
